How the values were obtained:
Format in all cases: in vivo
COX-1 mRNA = assay: TNBS-induced colitis in mice, colonic COX-1 mRNA by RT-PCR; details: dose equimolar to 50 mg/kg mesalamine; FIG. 13
Procedure: (§1) The same model was used as described above. In this example, the effects of mesalamine (50 mg/kg) were compared to those of equimolar doses of Compound XXXV. In addition to measuring the severity of colitis by measuring disease activity score and MPO activity, tissues were processed for measurement of a number of genes for inflammatory cytokines and other mediators.
(§2) In particular, mRNA expression in mice of tumour necrosis factor-alpha (TNF-α), interferon gamma (IFN-γ), colonic interleukin (IL)-1, IL-2, IL-10, IL-12 p40, RANTES, cyclooxygenase (COX)-1, COX-2, constitutive endothelial nitric oxide synthase (eNOS), and inducible NOS (iNOS) was measured as described in Wallace et al. (1999) Gastroenterology 117: 557-566, incorporated herein by reference.
(§3) Briefly, reverse transcription-polymerase chain reaction (RT-PCR) was used to detect and quantify mRNA of the particular cytokine/chemokine/enzyme. Glyceraldehyde-3-phosphate dehydrogenase (GAPDH) was used as the “housekeeping gene” for mRNA expression (i.e., as an internal control). For each sample, the ratio of the amplification of the target gene to the amplification of GAPDH (expression of each is measured by performing densitometry on gels) was obtained. […]

[1] = test system: myeloperoxidase (MPO) activity; assay: TNBS-induced colitis in mice, colonic myeloperoxidase (MPO) activity as marker of granulocyte infiltration
Procedure: A standard experimental animal model of colitis induced by intracolonic administration of 2,4,6-trinitrobenzene sulfonic acid (TNBS) to mice is used in the following example. A detailed description of this model has been published (Santucci et al. (2003) Gastroenterology 124:1381-94) and is incorporated herein by reference. Briefly, 6-8 week old Balb/c mice were given TNBS intracolonically at a dose of 1.5 mg in 0.1 mL of 30% ethanol. The mice were randomized to the various treatment groups (n=6 per group). Beginning one hour later and continuing every 12 h for 5 days, the mice were treated orally with vehicle (1% carboxymethylcellulose (CMC)), 5-ASA (mesalamine) (25, 50 or 75 mg/kg) or with equimolar doses of 2-hydroxy-5-amino-benzoic acid 4-(thioxo-5H-[1,2]dithiol-3-yl)-phenyl ester hydrochloride (Compound XXXV) (130 mg/kg), or with […] (100 mg/kg), 50% (66 mg/kg) and 25% (33 mg/kg) of that dose. The mice were evaluated (blindly) on the final day of the study for the presence of diarrhea and fecal occult blood, and their body weights were measured. […] After sacrifice, a sample of the colon was excised for measurement of myeloperoxidase (MPO) activity, as a marker of granulocyte infiltration. All results were compared to those obtained with healthy mice as well.

iNOS mRNA = assay: TNBS-induced colitis in mice, colonic iNOS mRNA by RT-PCR; details: dose equimolar to 50 mg/kg mesalamine; FIG. 14
Procedure: as §1, §2, §3

Nc1ccc(O)c(C(=O)Oc2ccc(-c3cc(=S)ss3)cc2)c1 [Compound XXXV, 5-Amino-2-hydroxy-benzoic acid 4-(5-thioxo-5H-[1,2]dithiol-3-yl)-phenyl ester]
COX-1 mRNA expression (COX-1 mRNA): suppressed
MPO activity (granulocyte infiltration) ([1]; Compound XXXV 130 mg/kg, FIG. 4): significantly reduced inflammation
MPO activity ([1]; dose-ranging, oral every 12 h for 5 days, highest doses tested, FIG. 2): significantly reduced (almost in half)
iNOS mRNA expression (iNOS mRNA): suppressed

— patent US7910568B2, “Derivatives of 4- or 5-aminosalicylic acid” (Antibe Therapeutics Inc., priority 2005, dated 2011)
